One compound from patent US20160367515A1, “Improved delivery of poorly water soluble drugs with aphafetoprotein stabilized with metal ions” (Oy Safemed Ltd., priority 2013, published 2016) can be followed below.

Each structure is given as a SMILES string. Bounds are passed on as bounds.

For one experiment, the system named is rat glioma C6. The experiment can be described thus: MTS cell viability assay, rat glioma C6 cells. Type of experiment: cell-based. As to conditions: C6, 48 h, compositions of paclitaxel with rhAFP or Zn-rhAFP. The method, then: (§1) Tumor cell lines: human mammary carcinoma MCF-7, human hepatoma HepG2, and rat glioma C6—were originated from the American Type Culture Collection (ATCC). All cell lines were maintained in the complete DMEM or RPMI-1640 media supplemented with L-glutamine and 10% fetal calf serum (FCS) in humidified 5% CO2 atmosphere. For a passage, adherent cells were incubated in the EDTA/0.25% trypsin solution, then washed and plated out for experiments. Prior to addition of reagents, cells were washed with the fresh media with 2% FCS, plated onto 96-well polystyrene plates (Costar, USA) at a density of 3×10^3 cell/well in 180 μL of complete medium with 2% FCS and incubated for 2 h. […] Cell proliferation was assessed by [^3H]-thymidine (^3H-TdR) incorporation assay. […] Cells were harvested and the ^3H-TdR incorporation was measured by using the liquid scintillation counter LKB 1209 Rackbeta (LKB, Sweden). Results were expressed as mean counts per minute (cpm)±standard error of the mean of triplicate cultures or as a percentage of ^3H-TdR incorporation in the experimental cell cultures relatively to the untreated control, as described (Semenkova et al., Tumour Biol. 1997; 18: 261-74).
(§2) Cell viability was assessed by the Promega CellTiter 96 AQueous Non-Radioactive Cell Proliferation MTS assay (Promega, USA) according to manufacturer's instructions. […]
In general terms: Tetrazolium dyes change colour on reduction, which living cells bring about.

In experiment [1] the test system is mammary carcinoma cell line MCF-7. The experiment can be described thus: MTS cell viability assay, mammary carcinoma MCF-7 cells. The experiment is classed as cell-based, human. On the procedure:
Effect of binding of Zn ions to rhAFP and sugar-free rhAFPo species was tested by measuring of their dose-dependent tumor-suppressive effect for mammary carcinoma cell line MCF-7 in vitro, as it was earlier described for natural embryonic eAFP (Dudich et al., Eur. J. Biochem. 1999; 266: 750-761). MCF-7 cells were incubated with various doses of rhAFP (rhAFPo), Zn-rhAFP (Zn-rhAFPo) or with natural embryonic eAFP for 48 h, and thereafter their viability was assessed by the colorimetric MTS assay (FIG. 1A).
Cell viability was assessed by the Promega CellTiter 96 AQueous Non-Radioactive Cell Proliferation MTS assay (Promega, USA) according to manufacturer's instructions. Cells were incubated with various AFP samples for 48 h as described above, followed by incubation with MTS-test reagents and measuring of the light adsorption of the formasan, appeared in the lysed cell supernatants at 492 nm by using VICTOR-1420 multilabel counter (Wallac, Finland). Intact cell cultures incubated without additions were taken as a control. By such a way the quantity of viable cells capable to internalize MTS dye was determined. Results were expressed as the mean optical density (OD)±the standard error of the mean triplicate cultures. The extent of cell viability was calculated as an average OD in experimental wells after addition of testing compounds in relation to untreated control wells, that was taken as 100%
To evaluate the efficacy of preparations rhAFP/Ptx and Zn-rhAFP/Ptx we compared the cytotoxic effect of Ptx alone or that in combination with rhAFP or Zn-rhAFP for taxol-resistant human hepatoma HepG2 cells, human breast carcinoma cells MCF-7, and rat glioma C6 cell lines in vitro. RhAFP or Zn-rhAFP were incubated with various doses of Ptx at 37° C. for 1 h to allow complex formation with molecular ratios rhAFP:Ptx 1:1; 1:3 or 1:5 and thereafter the mixtures were introduced into the cell culture for 48 hrs. Cytotoxicity was measured by MTS assay.
Various doses of rhAFP/Ptx complexes were tested for their effectiveness for inhibition of human mammary carcinoma MCF-7, human hepatoma HepG2, and rat glioma C6 tumor cell growth in vitro. First, we optimized drug concentration and rhAFP amount to the extent that it would not generate an extensive cytotoxic effect alone. Then, the cells were seeded in 96-well plates at a density of 3×10^3/well in 100 μl of medium for 24 hrs to allow adherence. The next day, rhAFP or Zn-rhAFP combined with Ptx at the molecular ratios of 1:1; 1:3 or 1:5 were added into the each well. After 48 h of incubation MTS assays were performed to determine survival rate of the cells. All the experiments were repeated at least three times. The results were expressed as mean±standard error (SE).
The coefficient of drug interaction (CDI) was calculated to analyze the effects of rhAFP and Ptx combinations. CDI was calculated by the equation: CDI=SRAFP/drug[…]/SRAFP×SRdrug, where SRAFP/drug is the average survival rate of combination group, and SRAFP or SRdrug are the average survival rates of the single agent groups. According to our evaluation, CDI values <1, =1 or >1 indicate that the combinations are synergistic, additive or antagonistic respectively.
The values of Zn-rhAFP/Ptx or rhAFP/Ptx complex concentration, which inhibited the cell viability by 50% (IC50) when compared to untreated control, were calculated according to the Hill's equation (sigmoid model of concentration-response curve) from the curves of dependence of the relative percentage of viable cells from AFP concentration expressed as mean values from three independent experiments±SD.
In order to confirm the hypothesis that the combination of Zn-rhAFP and various low water-soluble chemotherapeutic agents would reveal increased anti-tumor efficacy, different cytotoxic compounds were tested in combination with Zn-rhAFP for their cell-killing effect in MCF-7 cells in vitro. […]

Experiment [2] deals with human hepatoma HepG2 cells. The experiment can be described thus: MTS cell viability assay, hepatoma HepG2 cells. As to conditions: HepG2, 48 h. The experiment is classed as cell-based. On the procedure: as §1, §2

Turning to `CC(=O)O[C@H]1C(=O)[C@@]2(C)[C@H]([C@H](OC(=O)c3ccccc3)[C@]3(O)C[C@H](OC(=O)[C@H](O)[C@@H](NC(=O)c4ccccc4)c4ccccc4)C(C)=C1C3(C)C)[C@]1(OC(C)=O)CO[C@@H]1C[C@@H]2O` [Ptx, paclitaxel], the 50% inhibitory concentration (IC50) in the experiment on rat glioma C6 is 2.5 µM; in experiment [1] (Homo sapiens, MCF7, MCF-7, 48 h, compositions of paclitaxel with rhAFP or Zn-rhAFP, mean of three experiments, read-out: IC50), over 10 µM. Further, the “Coefficient for drug interaction (CDI)” value in experiment [1] (MCF7 + Zn-rhAFP 1.4 μM (Zn:rhAFP 4:1) + drug, 48 h) was 0.80. Besides, in experiment [2], the “sensitivity of HepG2 cells (chemoresistance)” value is on record as “complete resistance”.

By IC50 is commonly meant the midpoint of a concentration-inhibition curve.
